The source of these data is patent publication US9951093B2, “Chiral compounds substituted with phosphonic acid ester functions or phosphonic acid functions” (UGISense AG, priority 2006, dated 2018).

This series has as its system HIV-1-NL4-3. Description: p24 ELISA in H9 cells chronically infected with HIV-1-NL4-3 (antisense effect). It is filed as cell-based. The conditions noted are these: H9 cells chronically infected with HIV-1-NL4-3, 5 days of incubation, p24 GAG ELISA. Here is the method:
H9 cells, chronically infected with strain HIV-1-NL4-3 are washed twice with a PBS buffer in order to remove viruses already produced. The cells are incubated in a 96-well plate with 10^4 cells/well, 4 wells per sample, in 200 μl culturing medium with or without a compound according to the invention or Ritonavir, respectively, at a distinct concentration. After 5 days of incubation, 40 μl of the cell suspension are taken from each of the 4 wells and inactivated with 40 μl Nonidet P-40.
The amount of the antigen p24 GAG is determined by a quantitative ELISA assay (Sandwich-ELISA-Biotin-Strepavidin-HRP) according to the standard method of the Institute for Applied Microbiology in Vienna. As a standard, samples with a known amount of p24 are used to investigate the standard calibration curve.
In this context, in the case of stereochemically non-uniform oligomers of the sequence […]-NH2 (SEQ ID NO: 1), a reduction of the amount of p24 of 21% can be observed compared with the untreated sample.
A general note: ELISA stands for enzyme-linked immunosorbent assay.

As to “TCGCTGCCAAAGAGT-NH2: stereochemically non-uniform oligomers of the sequence TCGCTGCCAAAGAGT-NH2 (SEQ ID NO: 1), as in EP 1157031 (3'-NH2, stereochemically non-uniform, chemistry not fully specified)”, the “reduction of the amount of p24 compared with the untreated sample” value was 21%.
